This note sets out measurements from patent US20080051466A1, “Isoalpha acid based protein kinase modulation cancer treatment” (Metaproteomics, LLC, priority 2006, published 2008).

Common to all, as to test: KinaseProfiler Assay
Holding throughout (assay type): biochemical

For one assay, the target named is T1, TSSK2 (Homo sapiens, UniProt Q96PF2).
T1 sequence (Q96PF2 1-358): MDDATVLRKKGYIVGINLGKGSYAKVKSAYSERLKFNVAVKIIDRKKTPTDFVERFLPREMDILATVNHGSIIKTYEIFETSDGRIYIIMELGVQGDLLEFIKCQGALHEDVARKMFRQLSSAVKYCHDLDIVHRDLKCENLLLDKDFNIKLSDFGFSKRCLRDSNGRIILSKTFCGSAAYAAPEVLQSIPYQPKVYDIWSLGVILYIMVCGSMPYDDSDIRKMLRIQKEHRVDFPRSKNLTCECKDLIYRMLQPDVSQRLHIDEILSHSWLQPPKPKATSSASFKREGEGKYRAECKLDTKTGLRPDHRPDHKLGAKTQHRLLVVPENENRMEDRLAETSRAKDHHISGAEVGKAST
To be noted: read-out: TSSK2, % of Control.

Another assay addresses T2, JAK3 (Homo sapiens, UniProt P52333).
T2 sequence (P52333 1-1124): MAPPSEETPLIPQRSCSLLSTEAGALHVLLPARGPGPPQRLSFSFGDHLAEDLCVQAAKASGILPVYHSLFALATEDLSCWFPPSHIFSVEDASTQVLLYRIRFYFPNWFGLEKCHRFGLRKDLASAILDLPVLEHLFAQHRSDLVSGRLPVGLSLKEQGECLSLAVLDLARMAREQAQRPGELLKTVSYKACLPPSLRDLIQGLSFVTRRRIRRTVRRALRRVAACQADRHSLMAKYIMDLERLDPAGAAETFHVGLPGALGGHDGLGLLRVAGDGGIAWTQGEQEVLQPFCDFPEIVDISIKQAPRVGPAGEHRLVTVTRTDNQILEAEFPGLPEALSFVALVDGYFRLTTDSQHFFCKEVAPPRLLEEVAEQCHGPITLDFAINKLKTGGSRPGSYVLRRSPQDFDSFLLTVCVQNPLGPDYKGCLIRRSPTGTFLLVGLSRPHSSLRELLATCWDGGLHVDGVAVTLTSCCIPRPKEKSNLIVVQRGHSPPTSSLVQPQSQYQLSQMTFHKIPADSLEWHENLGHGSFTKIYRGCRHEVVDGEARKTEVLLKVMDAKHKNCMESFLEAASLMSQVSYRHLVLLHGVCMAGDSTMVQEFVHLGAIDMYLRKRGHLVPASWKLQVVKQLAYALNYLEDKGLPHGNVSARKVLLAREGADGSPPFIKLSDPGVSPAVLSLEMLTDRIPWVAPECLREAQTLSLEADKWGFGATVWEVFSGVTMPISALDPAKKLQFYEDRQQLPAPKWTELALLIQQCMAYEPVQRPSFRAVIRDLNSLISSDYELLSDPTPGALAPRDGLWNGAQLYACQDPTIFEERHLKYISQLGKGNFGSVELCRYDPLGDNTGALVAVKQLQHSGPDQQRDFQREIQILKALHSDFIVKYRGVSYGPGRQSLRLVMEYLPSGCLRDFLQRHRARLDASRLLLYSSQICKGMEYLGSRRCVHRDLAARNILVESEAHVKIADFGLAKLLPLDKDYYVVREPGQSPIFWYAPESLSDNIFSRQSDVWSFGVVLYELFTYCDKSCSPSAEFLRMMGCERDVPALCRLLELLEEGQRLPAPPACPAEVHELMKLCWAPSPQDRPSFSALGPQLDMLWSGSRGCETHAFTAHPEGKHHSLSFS
The conditions noted are these: read-out: JAK3, % of Control.

In a further assay the target is Fyn (Homo sapiens, UniProt P06241). To be noted: read-out: Fyn, % of Control.
In the next assay the target is Abl(T315I) (Homo sapiens, UniProt P00519, T315I). The conditions noted are these: read-out: Abl(T315I), % of Control.
Another assay has as its target CDK5/p25 (Homo sapiens, UniProt Q00535). The conditions noted are these: read-out: CDK5/p25, % of Control.
The target in another assay is HIPK2 (Homo sapiens, UniProt Q9H2X6). To be noted: read-out: HIPK2, % of Control.
For another assay, the target named is T3, Aurora-A (Homo sapiens, UniProt O14965).
T3 sequence (O14965 1-403): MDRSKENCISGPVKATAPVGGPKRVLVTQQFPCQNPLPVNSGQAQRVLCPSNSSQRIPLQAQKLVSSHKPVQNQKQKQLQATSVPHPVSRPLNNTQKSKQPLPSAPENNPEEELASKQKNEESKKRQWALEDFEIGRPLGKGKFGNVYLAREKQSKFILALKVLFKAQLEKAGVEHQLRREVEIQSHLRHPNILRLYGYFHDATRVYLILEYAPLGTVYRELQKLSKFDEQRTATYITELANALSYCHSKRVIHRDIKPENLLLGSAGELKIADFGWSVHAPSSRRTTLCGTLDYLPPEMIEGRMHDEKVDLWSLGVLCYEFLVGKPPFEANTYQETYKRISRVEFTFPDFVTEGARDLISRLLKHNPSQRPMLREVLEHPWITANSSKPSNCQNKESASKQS
To be noted: read-out: Aurora-A, % of Control.

Chain of Fyn (P06241 whole entry): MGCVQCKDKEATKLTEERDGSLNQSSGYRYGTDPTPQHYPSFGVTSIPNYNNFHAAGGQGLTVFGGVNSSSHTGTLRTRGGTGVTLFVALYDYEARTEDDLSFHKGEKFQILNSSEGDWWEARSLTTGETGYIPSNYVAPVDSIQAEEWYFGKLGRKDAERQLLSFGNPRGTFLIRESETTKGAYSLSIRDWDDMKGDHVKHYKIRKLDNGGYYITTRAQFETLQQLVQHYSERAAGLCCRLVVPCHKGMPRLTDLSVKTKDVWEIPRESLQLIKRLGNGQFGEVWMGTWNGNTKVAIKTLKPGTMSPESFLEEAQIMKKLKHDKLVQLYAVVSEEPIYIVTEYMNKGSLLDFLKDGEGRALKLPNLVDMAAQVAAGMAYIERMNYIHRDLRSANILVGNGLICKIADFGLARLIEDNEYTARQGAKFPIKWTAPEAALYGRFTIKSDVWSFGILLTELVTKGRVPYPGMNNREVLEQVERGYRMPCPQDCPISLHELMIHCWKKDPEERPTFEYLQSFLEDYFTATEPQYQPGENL
Chain of HIPK2 (Q9H2X6 whole entry): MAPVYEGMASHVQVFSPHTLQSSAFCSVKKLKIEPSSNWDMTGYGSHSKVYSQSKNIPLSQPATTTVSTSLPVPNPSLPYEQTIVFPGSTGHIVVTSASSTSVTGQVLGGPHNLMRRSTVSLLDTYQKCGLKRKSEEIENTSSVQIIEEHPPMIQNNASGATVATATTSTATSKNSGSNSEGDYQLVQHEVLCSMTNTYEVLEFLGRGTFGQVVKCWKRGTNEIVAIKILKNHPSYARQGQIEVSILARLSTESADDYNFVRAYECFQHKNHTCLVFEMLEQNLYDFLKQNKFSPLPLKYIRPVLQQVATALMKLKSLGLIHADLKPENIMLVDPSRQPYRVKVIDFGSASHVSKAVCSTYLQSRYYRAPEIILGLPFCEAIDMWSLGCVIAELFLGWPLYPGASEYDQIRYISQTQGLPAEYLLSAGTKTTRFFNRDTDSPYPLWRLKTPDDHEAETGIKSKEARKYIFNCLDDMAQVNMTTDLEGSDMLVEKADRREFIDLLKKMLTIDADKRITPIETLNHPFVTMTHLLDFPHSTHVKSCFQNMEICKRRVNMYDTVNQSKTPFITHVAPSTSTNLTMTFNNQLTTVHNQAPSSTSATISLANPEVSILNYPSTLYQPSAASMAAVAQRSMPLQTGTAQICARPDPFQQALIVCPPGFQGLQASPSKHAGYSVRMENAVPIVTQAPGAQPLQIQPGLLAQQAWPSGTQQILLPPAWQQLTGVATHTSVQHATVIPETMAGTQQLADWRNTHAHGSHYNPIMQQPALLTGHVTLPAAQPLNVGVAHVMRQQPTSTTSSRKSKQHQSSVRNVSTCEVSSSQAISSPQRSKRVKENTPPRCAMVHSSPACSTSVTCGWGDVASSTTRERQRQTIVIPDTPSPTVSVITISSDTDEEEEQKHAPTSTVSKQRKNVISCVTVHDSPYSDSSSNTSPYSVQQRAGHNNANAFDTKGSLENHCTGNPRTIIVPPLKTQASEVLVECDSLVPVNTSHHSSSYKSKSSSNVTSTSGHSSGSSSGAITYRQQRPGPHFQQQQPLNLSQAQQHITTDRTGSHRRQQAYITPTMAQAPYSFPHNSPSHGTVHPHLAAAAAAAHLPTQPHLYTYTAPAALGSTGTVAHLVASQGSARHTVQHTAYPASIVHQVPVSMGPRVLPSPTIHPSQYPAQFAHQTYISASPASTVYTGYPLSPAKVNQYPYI
Chain of CDK5/p25 (Q00535 whole entry): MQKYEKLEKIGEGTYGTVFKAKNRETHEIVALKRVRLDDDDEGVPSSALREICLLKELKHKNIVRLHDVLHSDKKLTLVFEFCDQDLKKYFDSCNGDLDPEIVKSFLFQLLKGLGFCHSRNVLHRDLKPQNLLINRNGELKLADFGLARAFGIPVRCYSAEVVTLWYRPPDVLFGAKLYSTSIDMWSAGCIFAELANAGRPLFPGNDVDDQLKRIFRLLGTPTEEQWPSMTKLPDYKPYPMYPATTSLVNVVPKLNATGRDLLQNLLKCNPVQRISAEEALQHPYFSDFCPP
Chain of CDK5/p25 (Q15078 99-307 partner limits assumed): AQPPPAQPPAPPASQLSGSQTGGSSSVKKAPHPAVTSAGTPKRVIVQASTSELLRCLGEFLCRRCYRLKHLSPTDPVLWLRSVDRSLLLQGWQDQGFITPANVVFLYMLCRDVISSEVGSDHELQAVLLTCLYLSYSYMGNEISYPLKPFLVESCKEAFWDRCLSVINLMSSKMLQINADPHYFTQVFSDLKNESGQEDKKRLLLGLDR

`COc1cc(O)c(CC=C(C)C)c(O)c1C(=O)/C=C/c1ccc(O)cc1` [Xanthohumol, xanthohumol]: the remaining activity at 1 µg/mL at TSSK2 (1 ug/ml) came out at 102%; on JAK3 (1 ug/ml), 104%; on Fyn (1 ug/ml) it was 104%; on Abl(T315I) (1 ug/ml) it was 126%; on HIPK2 (1 ug/ml), 110%. Besides, the remaining activity at 5 µg/mL at TSSK2 (5 ug/ml) was found to be 95%; at JAK3 (5 ug/ml) it was 84%; at Fyn (5 ug/ml), 66%; at Abl(T315I) (5 ug/ml) it was 115%; on HIPK2 (5 ug/ml), 98%; at Aurora-A (5 ug/ml) it was 27%. The remaining activity at 25 µg/mL was found to be 61% on TSSK2 (25 ug/ml); 17% at JAK3 (25 ug/ml); 42% at Fyn (25 ug/ml); 16% at Abl(T315I) (25 ug/ml); 24% at CDK5/p25 (25 ug/ml); 3% on Aurora-A (25 ug/ml). Besides, the remaining activity at 50 µg/mL was determined as 48% on TSSK2 (50 ug/ml); 5% on JAK3 (50 ug/ml); 18% at Fyn (50 ug/ml); 87% at CDK5/p25 (50 ug/ml); 8% at Aurora-A (50 ug/ml).
